Patent US20110159515A1, “COMPOSITIONS AND METHODS FOR THE RAPID GROWTH AND DETECTION OF MICROORGANISMS” (SOLUS SCIENTIFIC SOLUTIONS LIMITED, priority 2008, published 2011)
“And” between values parts separate entries of the source, which are not always exact repeats. Identical values can stand only once. Like-named read-outs stand apart in the source and are kept apart here.

Assays:
[1] = system: L. innocua; assay: Direct binding Salmonella assay (chemiluminescence immunosorbent); settings: 10^6 L. innocua; detergent level not given
Description: (§1) The sample was heated to 100° C. for 5 minutes and allowed to cool. One hundred microlitres of each test sample was added directly to a well of a solid white 96 well high binding microtitre plate (Greiner Bio One) and incubated at 37° C. for 30 minutes. During incubation, the lipid A portion of the LPS binds to the surface of the plate via non-covalent hydrophobic interactions (FIG. 1a (1), FIG. 1b(1)).
(§2) The final concentration of antibody per well was 50 ng. The plate-bound sample (Salmonella LPS/core oligosaccharide) and antibody were incubated in the coated wells for 30 minutes as 37° C. Following incubation, plates were washed three times in wash buffer and pat dried prior to detection (FIG. 1a(2), FIG. 1b(2)).
(§3) When the anti-Salmonella is directly labelled with acridinium ester, plates were placed into a luminometer. 30 μl of trigger solution A and 60 μl of trigger solution B was added to each well of the microtitre plate to initiate light output from conjugated acridinium ester (FIG. 1a(3)). The luminometer settings were as follows:
(§4) When the anti-Salmonella antibody is not labelled, a second binding member, a goat anti-mouse IgG2b conjugate is used. Post column IgG2b was diluted 1:100 in a diluent comprising 3% (w/v) non-fat milk powder and 0.05% (v/v) Tween 20 and 100 ul of this solution was added to each well of the plate (FIG. 1b(3)). Following incubation at 37° C. for 60 minutes the plate was washed four times in wash buffer, dried and read as above (FIG. 1b(4)).
Monoclonal antibody (1:100 dilution) was incubated with either Salmonella or Listeria to determine optimum incubation times:
Monoclonal antibody (1:200 dilution) was incubated with either Salmonella or Listeria to determine optimum incubation times: […]

[2] = system: S. aberdeen; assay: as above; settings: detergent level not given
Description: as §1, with “After 5 hours of culture, a 2 ml aliquot of the sample was removed and SDS was added to a final concentration of 0.5% (w/v). The” for “The”
as §2, §3, §4
The wells of an assay plate are coated with standard concentrations of bacteria for 1 hour at 37° C. These standard concentrations are: 10^6, 10^5, 5×10^4, 2.5×10^4, 10^4 and 5×10^3 and blank wells containing 10^6 E. coli. The fractions to be tested are diluted 1:100 in assay buffer and […] is added to each well and incubated at 37° C. for 20 minutes. The wells are then read on the luminometer, as above.

[3] = system: Salmonella; assay: Growth response in tryptic soy broth with additive, A620 turbidity; assay type: cell-based, Salmonella aberdeen; settings: for A620: Salmonella
[4] = system: E. coli; assay: as above; assay type: cell-based; settings: for A620: E. coli
[5] = system: Staphylococcus aureus
[6] = system: Shigella flexneri
[7] = 10^1 bacteria (species not given)
[8] = 10^2 bacteria (species not given)
[9] = 10^3 bacteria (species not given)
[10] = 10^4 bacteria (species not given)
[11] = 10^5 bacteria (species not given)
[12] = 10^6 bacteria (species not given)
[13] = 5 mg/litre brilliant green, high absorbance values due to absorbance of Brilliant Green
[14] = 7 mg/litre brilliant green, high absorbance values due to absorbance of Brilliant Green
[15] = 10 mg/litre brilliant green, high absorbance values due to absorbance of Brilliant Green
[16] = 2 to 16 g/L, tryptic soy broth, 37° C., 18 hours

CCCCCCCCCCCCCCCC[N+](C)(C)C.[Br-] [CTAB, cetyltrimethyammonium bromide]
signal, release and detection of core oligosaccharide [1]: 7593 relative light units
signal, release and detection of core oligosaccharide [2, 7]: 8901 relative light units
signal, release and detection of core oligosaccharide [2, 8]: 9746 relative light units
signal, release and detection of core oligosaccharide [2, 9]: 21541 relative light units
signal, release and detection of core oligosaccharide [2, 10]: 203215 relative light units
signal, release and detection of core oligosaccharide [2, 11]: 775871 relative light units
signal, release and detection of core oligosaccharide [2, 12]: 866920 relative light units

CCCCCCCCCCCCCCCC[N+](C)(C)C.[Cl-] [CTAC, cetyltrimethyammoniumchloride]
signal, release and detection of core oligosaccharide [1]: 7892 relative light units
signal, release and detection of core oligosaccharide [2, 7]: 10321 relative light units
signal, release and detection of core oligosaccharide [2, 8]: 12485 relative light units
signal, release and detection of core oligosaccharide [2, 9]: 22758 relative light units
signal, release and detection of core oligosaccharide [2, 10]: 205093 relative light units
signal, release and detection of core oligosaccharide [2, 11]: 792108 relative light units
signal, release and detection of core oligosaccharide [2, 12]: 881712 relative light units

C[C@H](CCC(=O)[O-])[C@H]1CC[C@H]2[C@@H]3[C@H](O)C[C@@H]4C[C@H](O)CC[C@]4(C)[C@H]3C[C@H](O)[C@]12C.[Na+] [SODIUM CHOLATE]
signal, release and detection of core oligosaccharide [1]: 7495 relative light units
signal, release and detection of core oligosaccharide [2, 7]: 8858 relative light units
signal, release and detection of core oligosaccharide [2, 8]: 8921 relative light units
signal, release and detection of core oligosaccharide [2, 9]: 12088 relative light units
signal, release and detection of core oligosaccharide [2, 10]: 67710 relative light units
signal, release and detection of core oligosaccharide [2, 11]: 529553 relative light units
signal, release and detection of core oligosaccharide [2, 12]: 917476 relative light units

CCN(CC)c1ccc(C(=C2C=CC(=[N+](CC)CC)C=C2)c2ccccc2)cc1 [brilliant green]
levels at which growth of Salmonella is limited [3]: ≥ 0.3 mg/L
optimum level for growth of Salmonella with inhibition of competing bacteria ([3]; FIG. 4): 0.15 mg/L
A620 ([3]; 0.15 mg/litre brilliant green): 0.255 and 0.229
A620 ([3]; 0.3 mg/litre brilliant green): 0.046 and 0.041
A620 ([3]; 1 mg/litre brilliant green): 0.057 and 0.040
A620 ([3]; 3 mg/litre brilliant green): 0.072 and 0.061
A620 [3, 13]: 0.282 and 0.256
A620 [3, 14]: 0.606 and 0.569
A620 [3, 15]: 0.614 and 0.607
levels at which growth of E. coli is limited [4]: ≥ 0.0003 g/L
A620 ([4]; 0.15 mg/litre brilliant green): 0.102 and 0.118
A620 ([4]; 0.3 mg/litre brilliant green): 0.043 and 0.062
A620 ([4]; 1 mg/litre brilliant green): 0.037 and 0.035
A620 ([4]; 3 mg/litre brilliant green): 0.041 and 0.034
A620 [4, 13]: 0.250 and 0.230
A620 [4, 14]: 0.524 and 0.500
A620 [4, 15]: 0.624 and 0.665

O=C([O-])CC(O)(CC(=O)[O-])C(=O)[O-].[Na+].[Na+].[Na+] [sodium citrate, tri-sodium citrate]
levels at which growth of Staphylococcus is limited [5]: ≥ 5 g/L
growth response of Shigella over those of Staphylococcus and E. coli ([6]; 15 g/L): significantly increased
effect on growth of Shigella ([6]; FIG. 6): enhanced
levels at which growth of E. coli is limited [4]: ≥ 5 g/L

O=S(=O)([O-])SSS(=O)(=O)[O-].[Na+].[Na+] [sodium tetrathionate]
effect on growth of Staphylococcus [5, 16]: inhibited
levels at which growth of Salmonella is inhibited [3]: above 16 g/L
effect on growth of Salmonella [3, 16]: un-affected or promoted
effect on the growth of Salmonella ([3]; 8 g/litre): clear enhancing effect
A620 ([3]; 4 g/litre tetrathionate): 0.187 and 0.179
A620 ([3]; 8 g/litre tetrathionate): 0.818 and 0.848
A620 ([3]; 12 g/litre tetrathionate): 0.226 and 0.270
A620 ([3]; 15 g/litre tetrathionate): 0.167 and 0.186
A620 ([3]; 20 g/litre tetrathionate): 0.150 and 0.139
A620 ([3]; 25 g/litre tetrathionate): 0.086 and 0.099
A620 ([3]; 30 g/litre tetrathionate): 0.059 and 0.073
levels in a culture media that significantly inhibit the growth of Salmonella spp ([3]; summary statement): above 20 g/L
effect on growth of Shigella [6, 16]: inhibited
levels that inhibit the growth of E. coli [4]: > 4 g/L
effect on growth of E. coli [4, 16]: inhibited
A620 ([4]; 4 g/litre tetrathionate): 0.096 and 0.104
A620 ([4]; 8 g/litre tetrathionate): 0.078 and 0.073
A620 ([4]; 12 g/litre tetrathionate): 0.053 and 0.048
A620 ([4]; 15 g/litre tetrathionate): 0.011
A620 ([4]; 20 g/litre tetrathionate): 0.015 and 0.018
A620 ([4]; 25 g/litre tetrathionate): 0.023 and 0.022
A620 ([4]; 30 g/litre tetrathionate): 0.021 and 0.020

TRITON X-100
signal, release and detection of core oligosaccharide [1]: 7076 relative light units
signal, release and detection of core oligosaccharide [2, 7]: 9981 relative light units
signal, release and detection of core oligosaccharide [2, 8]: 10494 relative light units
signal, release and detection of core oligosaccharide [2, 9]: 22570 relative light units
signal, release and detection of core oligosaccharide [2, 10]: 203602 relative light units
signal, release and detection of core oligosaccharide [2, 11]: 867745 relative light units
signal, release and detection of core oligosaccharide [2, 12]: 455886 relative light units

ammonium ferric citrate
levels at which growth of Staphylococcus is limited [5]: ≥ 0.25 g/L
effect on growth of Salmonella ([3]; levels above 0.25 g/l, FIG. 5): unaffected
optimum level for growth of Shigella ([6]; FIG. 5): 0.25 g/L
levels at which growth of E. coli is limited [4]: ≥ 0.25 g/L
